US9993462B2, “Hydantoin derivative-containing pharmaceutical composition” (Chugai Seiyaku Kabushiki Kaisha, priority 2014, dated 2018)

Experiments:
TPTX rat = assay: Calcemic action in the TPTX rat model; format: in vivo; conditions: TPTX rats, 30 mg/kg oral; for change of serum Ca concentration from the Pre-value (in words): up to 24 hours after administration
Description: Four-week old female Crl:CD(SD) rats were obtained from Charles River Japan (Atsugi Breeding Center), and were acclimated to standard laboratory conditions of 20-26° C. and 35-75% humidity for one week. The rats were given tap water and were fed ad libitum with standard rodent chow (CE-2) (CLEA Japan, Inc.) containing 1.1% calcium, 1.0% phosphoric acid, and 250 IU/100 g of vitamin D3.
TPTX was performed on five-week old rats. Some of the individuals were subjected to sham operation (Sham). Individuals whose serum Ca concentration was less than 8 mg/dL on four days after the operation were selected for use as TPTX rats. On five days after the operation, the rats were assigned to eight TPTX groups and one Sham group (n=5, each group) based on their body weight and serum Ca concentration measured on four days after the operation. The solvent alone was orally administered to the Sham group and the TPTX-Vehicle group at a volume of 10 mL/kg. Each test article was orally administered individually to each TPTX test article group by dissolving it in a solvent at a dose of 30 mg/10 mL/kg. The solvent composition was 10% dimethylsulfoxide (Wako Pure Chemical Industries, Ltd.), 10% Cremophor EL (Sigma-Aldrich Japan LLC), 20% hydroxypropyl-β-cyclodextrin (Nihon Shokuhin Kako Co., Ltd.), glycine (Wako Pure Chemical Industries, Ltd.); and the pH was adjusted to 10. Immediately before administration of each sample, Pre-blood collection was performed, and blood collection was carried out at 2, 6, 10, and 24 hours after administration to measure the serum Ca concentration. Each blood collection was carried out from the jugular vein under isoflurane inhalation anesthesia.
Serum Ca measurement: Serum obtained by centrifugation from the collected blood was measured by using an automatic analyzer TBA-120FR (Toshiba Medical Systems Corporation).
For statistical analysis of the animal studies, data are shown as mean±standard error (SE). Statistical analysis were performed by unpaired test of the SAS Preclinical Package (Ver. 5.00.010720, SAS Institute Japan, Tokyo, Japan).

human PTH1R = target: T1, human PTH1R (Homo sapiens, UniProt Q03431); assay: In vitro cAMP signal activity via the human PTH1R (HKRK-B7 cells); format: cell-based; conditions: human PTH(1-34) at 100 nM = 100%; for EC20: concentration at 20% cAMP signaling activity
T1 construct: expressed in transfected cells; host or cells: HKRK-B7 (LLC-PK1 porcine kidney cells stably expressing human PTH1R)
T1 sequence (Q03431 27-593): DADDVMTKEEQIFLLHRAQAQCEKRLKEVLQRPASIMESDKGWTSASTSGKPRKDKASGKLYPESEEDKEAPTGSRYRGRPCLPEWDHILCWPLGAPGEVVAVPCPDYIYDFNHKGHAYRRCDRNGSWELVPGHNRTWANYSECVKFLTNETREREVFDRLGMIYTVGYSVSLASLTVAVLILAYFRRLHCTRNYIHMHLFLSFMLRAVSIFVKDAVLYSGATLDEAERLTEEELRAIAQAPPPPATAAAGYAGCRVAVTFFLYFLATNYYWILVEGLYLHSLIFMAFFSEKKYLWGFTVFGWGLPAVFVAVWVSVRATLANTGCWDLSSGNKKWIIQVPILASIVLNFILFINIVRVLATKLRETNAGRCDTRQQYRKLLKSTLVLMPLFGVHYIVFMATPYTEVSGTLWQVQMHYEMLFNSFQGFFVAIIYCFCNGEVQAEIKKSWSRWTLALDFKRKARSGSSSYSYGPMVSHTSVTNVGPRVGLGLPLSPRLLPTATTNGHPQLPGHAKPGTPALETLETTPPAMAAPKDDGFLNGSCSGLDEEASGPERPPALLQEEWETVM
Description: Human PTH(1-34) and calcitonin were purchased from Peptide Institute, Inc. (Osaka, Japan), dissolved in 10 mM acetic acid to 1 mM and stored in a −80° C. freezer.
Cells were cultured in Dulbecco's modified Eagle's medium (DMEM) supplemented with 10% fetal bovine serum (Hyclone), 100 units/ml penicillin G and 100 μg/ml streptomycin sulfate (Invitrogen Corp) at 37° C. in a humidified atmosphere containing 5% CO2.
cAMP signal transduction analysis utilized LLC-PK1 cells not expressing the PTH1R, and HKRK-B7 cells, that is, LLC-PK1 cells overexpressing the human PTH1R at 9.5×10^5 receptors/cell (Takasu et al., J. Bone. Miner. Res. 14:11-20, 1999).
HKRK-B7 or LLC-PK1 cells were seeded into a 96-well plate at 1×10^5 cells/well and incubated overnight. On the following day, 50 μl of cAMP assay buffer (DMEM, 2 mM IBMX, 0.2 mg/ml bovine serum albumin, 35 mM Hepes-NaOH, pH 7.4) containing human PTH(1-34) or each compound was added and the plate was placed in a 37° C. incubator. The cells were incubated for 20 minutes. After removing the medium, the cells were washed with 100 μl of cAMP assay buffer once. The plate was placed on dry ice powder to freeze the cells and then removed from the dry ice. The cells were lysed with 40 μl of 50 mM HCl and frozen again on dry ice. The amount of intracellular cAMP produced was measured using a commercially available cAMP EIA kit (Biotrack cAMP EIA system, GE health care).
Analyses were performed using a variable gradient S-shaped dose-response curve equation.

rat hepatocyte = assay: Metabolic stability using rat hepatocyte; format: in vitro ADME
Description: Liver cells were prepared from the liver of rats (SD, female) by a collagenase perfusion method. A compound of the Reference Examples or a Comparative Example was added, and this was incubated at 37° C. for a specified amount of time, followed by addition of a reaction-stopping solution. The concentration of the parent compound at each reaction time was measured using LC/MS/MS, and inherent clearance (μL/10^6 cells/min) was calculated from the slope of the reaction time versus residual rate.
• Cell concentration: 1×10^6 cells/mL • Compound concentration: 1 μM • Medium: Williams' medium E • Reaction time: 0, 15, 30, 60, 120, and 240 minutes • Reaction-stopping solution: acetonitrile/2-propanol (4/6, v/v)

| Structure (SMILES) | achievement of the therapeutic target range of serum Ca concentration of 7.6 to 8.8 mg/dL (TPTX rat) | change of serum Ca concentration from the Pre-value (in words) (TPTX rat) | EC20 (human PTH1R) [nM] | rat hepatocyte metabolic stability compared to Comparative Examples 1, 2, 3, 5, and 6 (in words) (rat hepatocyte) | EC50 (human PTH1R; concentration at 50% cAMP signaling activity) [nM] |
| --- | --- | --- | --- | --- | --- |
| Cc1cc(N2C(=O)CNC2=O)cc(C)c1CCS(=O)(=O)N1CCC2(CC1)N=C(c1cccc(OC(F)(F)F)c1)NC2=O [Comparative Example 2, reference compound] | could not be achieved | smaller positive changes from the Pre-value | 3100 | – | – |
| Cc1cc(N2C(=O)CNC2=O)cc(C)c1CCS(=O)(=O)N1CCC2(CC1)N=C(c1ccc(F)c(C(F)(F)F)c1)NC2=O [Comparative Example 3, reference compound] | – | – | 2000 | – | – |
| CCC1CCC(C2=NC3(CCN(S(=O)(=O)CCc4ccc(N5CC(=O)NC5=O)cc4C)CC3)C(=O)N2)CC1 (stereo not drawn) [Comparative Example 4, reference compound] | – | – | >505000 | – | – |
| CC[C@H]1CC[C@H](C2=NC3(CCN(S(=O)(=O)CCc4ccc(N5C(=O)NC(=O)C5C)cc4C)CC3)C(=O)N2)CC1 (stereo partly drawn) [Comparative Example 5, reference compound] | – | – | 3100 | – | – |
| CC[C@H]1CC[C@H](C2=NC3(CCN(S(=O)(=O)CCc4ccc(N5C(=O)NC(=O)C5(C)C)cc4C)CC3)C(=O)N2)CC1 [Comparative Example 6, reference compound] | – | – | 3600 | – | – |
| Cc1cc(N2C(=O)NC(=O)C2(C)C)cc(C)c1CCS(=O)(=O)N1CCC2(CC1)N=C(c1ccc(F)c(OC(F)(F)F)c1)NC2=O [Compound 1, 1-(4-(2-((2-(4-fluoro-3-(trifluoromethoxy)phenyl)-4-oxo-1,3,8-triazaspiro[4.5]deca-1-en-8-yl)sulfonyl)ethyl)-3,5-dimethylphenyl)-5,5-dimethylimidazolidine-2,4-dione] | could not be achieved | smaller positive changes from the Pre-value | 1300 | – | – |
| Cc1cc(N2C(=O)NC(=O)C2(C)C)cc(C)c1CCS(=O)(=O)N1CCC2(CC1)N=C(c1cccc(Br)c1)NC2=O [Compound 2, 1-(4-(2-((2-(3-bromophenyl)-4-oxo-1,3,8-triazaspiro[4.5]deca-1-en-8-yl)sulfonyl)ethyl)-3,5-dimethylphenyl)-5,5-dimethylimidazolidine-2,4-dione] | – | – | 2400 | increased | – |
| Cc1cc(N2C(=O)NC(=O)C2(C)C)cc(C)c1CCS(=O)(=O)N1CCC2(CC1)N=C(c1ccc(F)c(C(F)(F)F)c1)NC2=O [Compound 3, 1-(4-(2-((2-(4-fluoro-3-(trifluoromethyl)phenyl)-4-oxo-1,3,8-triazaspiro[4.5]deca-1-en-8-yl)sulfonyl)ethyl)-3,5-dimethylphenyl)-5,5-dimethylimidazolidine-2,4-dione] | – | – | 1500 | – | 7200 |
| Cc1cc(N2C(=O)NC(=O)C2(C)C)cc(C)c1CCS(=O)(=O)N1CCC2(CC1)N=C(c1ccc(OC(F)(F)F)c(F)c1)NC2=O [Compound 4, 1-(4-(2-((2-(3-fluoro-4-(trifluoromethoxy)phenyl)-4-oxo-1,3,8-triazaspiro[4.5]deca-1-en-8-yl)sulfonyl)ethyl)-3,5-dimethylphenyl)-5,5-dimethylimidazolidine-2,4-dione] | – | – | 1600 | increased | – |
| Cc1cc(N2C(=O)NC(=O)C2(C)C)cc(C)c1CCS(=O)(=O)N1CCC2(CC1)N=C(c1ccc3c(c1)OC(F)(F)O3)NC2=O [Compound 5, 1-(4-(2-((2-(2,2-difluorobenzo[d][1,3]dioxol-5-yl)-4-oxo-1,3,8-triazaspiro[4.5]deca-1-en-8-yl)sulfonyl)ethyl)-3,5-dimethylphenyl)-5,5-dimethylimidazolidine-2,4-dione] | – | – | 1700 | increased | – |
| Cc1cc(N2C(=O)NC(=O)C2(C)C)cc(C)c1CCS(=O)(=O)N1CCC2(CC1)N=C(c1cccc(C(F)(F)F)c1)NC2=O [Compound 6, 1-(3,5-dimethyl-4-(2-((4-oxo-2-(3-(trifluoromethyl)phenyl)-1,3,8-triazaspiro[4.5]deca-1-en-8-yl)sulfonyl)ethyl)phenyl)-5,5-dimethylimidazolidine-2,4-dione] | achieved the therapeutic target range | large positive changes from the Pre-value | 2000 | increased | – |
| Cc1cc(N2C(=O)NC(=O)C23CCN(C)CC3)cc(C)c1CCS(=O)(=O)N1CCC2(CC1)N=C(c1ccc(OC(F)(F)F)cc1)NC2=O [Compound 9, 1-(3,5-dimethyl-4-(2-((4-oxo-2-(4-(trifluoromethoxy)phenyl)-1,3,8-triazaspiro[4.5]deca-1-en-8-yl)sulfonyl)ethyl)phenyl)-8-methyl-1,3,8-triazaspiro[4.5]decane-2,4-dione] | – | – | 2600 | increased | – |
